Earlier results in patent publication US20140010903A1, “Curcuminoid composition with enhanced bioavailability and a process for its preparation” (Akay Flavours & Aromatics Pvt Ltd., priority 2012, published 2014).

O=C(/C=C/C=C/c1ccc2c(c1)OCO2)N1CCCCC1 [piperine]
Toxicity in animal studies: toxic
